Measured values reported in patent US9289364B2, “Tyrosinase inhibitors” (Avon Products, Inc., priority 2013, dated 2016).

What was measured:
Mushroom tyrosinase = Mushroom tyrosinase assay (conversion of L-Tyrosine to DOPAchrome); assay type: biochemical; details: 25° C., 30 min, absorbance 492 nm
Protocol: Mushroom tyrosinase and L-Tyrosine were obtained from Sigma-Aldrich, Inc. (St. Louis, Mo.). The enzyme activity was measured in buffer containing 100 mM phosphate buffer pH 6.8, 5% absolute ethanol, 2 micrograms/milliliter mushroom tyrosinase, and 0.2 mg/ml L-Tyrosine. The reaction (conversion of L-Tyrosine to DOPAchrome) was conducted in triplicates at 25° C. for 30 min, and absorbance was then measured at 492 nm. Kojic Acid was used as a positive control inhibitor in these assays. Percent change in tyrosinase activity relative to vehicle control was calculated.

B16 mouse melanoma cells = experiment: Inhibition of melanin production in B16 melanoma cell assay; assay type: cell-based; details: 4 days, alpha MSH 2 nanogram/ml, normalized to cell viability (MTT)
Protocol: The effects of various test compounds on melanin levels were determined by performing assays using B16 melanoma cells. These cells are known to constitutively produce melanin and are a commonly utilized and accepted model system for monitoring the inhibition of melanin synthesis. The B16 mouse melanoma cells were seeded (ATCC, cat. #: CRL-6475) into 96-well tissue culture-treated plates (BD Falcon) and treated with test actives or controls in phenol red free DMEM (Mediatech; cat. #: 17-205-CV) with 2 nanogram/ml of alpha MSH (Fluka; cat #:63605). The cells were examined for their ability to modulate pigment formation. […] Tests were performed in 6 replicates each. Following the treatment period (4 days), the level of pigment produced or melanin synthesized was quantified by reading the absorbance at 540 nm using a standard microplate reader (Tecan Group Ltd.).
After quantifying the amount of melanin, cell viability was determined using the MTT conversion method. The MTT conversion method measures the reduction of the MTT dye from a yellow colored, water-soluble, tetrazolium salt to a bluish-purple colored insoluble formazan precipitate by NAD(P)H-dependent microsomal dehydrogenase enzymes, which only function in viable cells. The intensity of the blue color is indicative of cell viability. After quantifying the amount of melanin pigment produced, the cells were exposed to MTT dye solution (1 mg/ml) for two to three hours. Formazan material was solubilized with reagent alcohol (95% ethanol: 5% isopropanol) and shaken on an orbital shaker for 15-30 minutes. MTT dye uptake and conversion by viable cells were determined by measuring the extracted formazan at 570 nm using a microplate reader. Total pigmentation was calculated, normalized to cell viability values and expressed as the average percent change in melanin activity relative to control of the six experiments performed.

Tyrosinase Inhibition (percent change in tyrosinase activity compared to DMSO vehicle control) (Mushroom tyrosinase; concentration 0.0010%) | Tyrosinase Inhibition (percent change in tyrosinase activity compared to DMSO vehicle control) (Mushroom tyrosinase; concentration 0.0100%) | Compound | B16 Assay Pigmentation Decrease (percent change in melanin compared to DMSO vehicle control) (B16 mouse melanoma cells; concentration 0.0001%) | B16 Assay Pigmentation Decrease (percent change in melanin compared to DMSO vehicle control) (B16 mouse melanoma cells; concentration 0.0010%)
−46% |  | Cc1cc(C)cc(Nc2nc(-c3ccc(O)cc3O)cs2)c1 [AV4662] | −57% | 
−75% | −59% | CN1CCN(c2nc(-c3ccc(O)cc3O)cs2)CC1 [AV5370] | −10% | −77%
